Data published in patent US20220235065A1 (Epizyme, Inc., priority 2016, published 2022).

What follows are molecules tested on H3K9me2 in MDA-MB-231 cells (assay: MDA-MB-231 H3K9me2 in-cell western assay). Settings: Homo sapiens, read-out: EHMT2 ICW (IC50 μM).
Format: cell-based
From the text: MDA-MB-231 cell line was purchased from ATCC (Manassas, Va., USA). RPMI/Glutamax medium, Penicillin-Streptomycin, Heat Inactivated Fetal Bovine Serum, and D-PBS were purchased from Life Technologies (Grand Island, N.Y., USA). Odyssey blocking buffer, 800CW goat anti-mouse IgG (H+L) antibody, and Licor Odyssey Infrared Scanner were purchased from Licor Biosciences, Lincoln, Nebr., USA. H3K9me2 mouse monoclonal antibody (Cat #1220) was purchased from Abcam (Cambridge, Mass., USA). 16% Paraformaldehyde was purchased from Electron Microscopy Sciences, Hatfield, Pa., USA). MDA-MB-231 cells were maintained in complete growth medium (RPMI supplemented with 10% v/v heat inactivated fetal bovine serum) and cultured at 37° C. under 5% CO2. UNC0638 was purchased from Sigma-Aldrich (St. Louis, Mo., USA).
General Procedure for MDA-MB-231 HEK9me2 In-Cell Western Assay.
Compound (100 nL) was added directly to 384-well cell plate. MDA-MB-231 cells (ATCC) were seeded in assay medium (RPMI/Glutamax supplemented with 10% v/v heat inactivated fetal bovine serum and 1% Penicillin/Streptomycin, Life Technologies) at a concentration of 3,000 cells per well to a Poly-D-Lysine coated 384-well cell culture plate with 50 μL per well. Plates were incubated at 37° C., 5% CO2 for 48 hours (BD Biosciences 356697). Plates were incubated at room temperature for 30 minutes and then incubated at 37° C., 5% CO2 for additional 48 hours. After the incubation, 50 μL per well of 8% paraformaldehyde (Electron Microscopy Sciences) in PBS was added to the plates and incubated at room temperature for 20 minutes. Plates were transferred to a Biotek 406 plate washer and washed 2 times with 100 μL per well of wash buffer (1×PBS containing 0.3% Triton X-100 (v/v)). Next, 60 μL per well of Odyssey blocking buffer (Licor Biosciences) was added to each plate and incubated for 1 hour at room temperature. Blocking buffer was removed and 20 μL of monoclonal primary antibody α-H3K9me2 (Abcam) diluted 1:800 in Odyssey buffer with 0.1% Tween 20 (v/v) were added and plates were incubated overnight (16 hours) at 4° C. Plates were washed 5 times with 100 μL per well of wash buffer. Next 20 μL per well of secondary antibody was added (1:500 800CW […] anti-mouse IgG (H+L) antibody (Licor Biosciences), 1:1000 DRAQ5 (Cell Signaling Technology) in Odyssey buffer with 0.1% Tween 20 (v/v)) and incubated for 1 hour at room temperature. The plates were washed 5 times with 100 μL per well wash buffer then 2 times with 100 μL per well of water. Plates were allowed to dry at room temperature then imaged on a Licor Odyssey Infrared Scanner (Licor Biosciences) which measured integrated intensity at 700 nm and 800 nm wavelengths. Both 700 and 800 channels were scanned.
% Inhibition Calculation.
First, the ratio for each well was determined by
Each plate included fourteen control wells of DMSO only treatment (Minimum Inhibition) as well as fourteen control wells (background wells) for maximum inhibition treated with control compound UNC0638 (Background wells).
The average of the ratio values for each well was calculated and used to determine the percent inhibition for each test well in the plate. Control compound was serially diluted three-fold in DMSO for a total of 10 test concentrations beginning at 1 μM. Percent inhibition was calculated as: […]
IC50 curves were generated using triplicate wells per concentration of compound. The IC50 is the concentration of compound at which measured methylation is inhibited by 50% as interpolated from the dose response curves. IC50 values were calculated using a non-linear regression (variable slope-four parameter fit model) with by the following formula
where Top is fixed at 100% and Bottom is fixed to 0%, [I]=concentration of inhibitor, IC50=half maximal inhibitory concentration and n=Hill Slope.

SMILES | IC50
CNC1=Nc2cc(-c3cc4[nH]ccc4cn3)c(OC)cc2C12CCC2 [Compound 214] | 0.1 to 1 µM
CNC1=Nc2cc(-c3cc4ccncc4[nH]3)c(OC)cc2C12CCC2 [Compound 215] | 0.1 to 1 µM
CNC1=Nc2cc(-c3[nH]c4cnccc4c3Cl)c(OC)cc2C12CCC2 [Compound 216] | 0.1 to 1 µM
CNc1cc(C)nc(Nc2ccc(OC)c(-c3ccc4c(c3)NC(=O)C4)c2)n1 [Compound 218] | 1 to 10 µM
CNc1cc(C)nc(Nc2ccc(OC)c(-c3cc4c(cn3)CC(=O)N4)c2)n1 [Compound 219] | > 10 µM
CNc1cc(C)nc(Nc2ccc(OC)c(-c3cc4[nH]ccc4cn3)c2OC)n1 [Compound 220] | > 10 µM
CNc1cc(C)nc(Nc2ccc(OC)c(-c3cc4[nH]ccc4cn3)c2F)n1 [Compound 221] | 0.1 to 1 µM
CNCc1cnn(-c2c(OC)ccc(Nc3nc(C)cc(NC)n3)c2OC)c1 [Compound 222] | 0.1 to 1 µM
CNc1cc(C)nc(Nc2ccc(OC)c(-c3cnc4cc[nH]c4c3)c2)n1 [Compound 223] | 0.1 to 1 µM
CNc1cc(-c2cc(Nc3nc(C)cc(NC)n3)ccc2OC)ncn1 [Compound 225] | 1 to 10 µM
CNc1cc(C)nc(Nc2ccc(OC)c(-c3cc4[nH]ccc4nc3C)c2)n1 [Compound 228] | 0.1 to 1 µM

Next, values leading:

IC50 | SMILES
0.1 to 1 µM | CNc1cc(C)nc(Nc2ccc(OC)c(-c3cc4[nH]cc(F)c4cn3)c2)n1 [Compound 229]
1 to 10 µM | CNc1cc(-c2cc(Nc3nc(C)cc(NC)n3)ccc2OC)nc(C)n1 [Compound 230]
> 10 µM | COc1cc(NC2CCNCC2)ccc1-c1cc2[nH]ccc2cn1 [Compound 231]
1 to 10 µM | CNc1cc(C)nc(Nc2ccc(OC)c(-c3cc(C4CC4)ncn3)c2)n1 [Compound 232]
1 to 10 µM | CNc1cc(C)nc(Nc2ccc(OC)c(-c3cc(C4CC4)cnn3)c2)n1 [Compound 233]
1 to 10 µM | CNc1cc(C)nc(Nc2ccc(OC)c(-c3cn4ccnc4cn3)c2)n1 [Compound 234]
> 10 µM | CNc1cc(C)nc(Nc2ccc(OC)c(-c3cc4cnoc4cn3)c2)n1 [Compound 235]
> 10 µM | COc1cc(NC2CCNCC2)ccc1-c1cc(C2CC2)cnn1 [Compound 236]
0.1 to 1 µM | CNc1cc(C)nc(Nc2ccc(OC)c(-c3cc4[nH]ccc4c(C)n3)c2)n1 [Compound 237]
< 0.1 µM | CNC1=Nc2cc(-c3[nH]c4cnccc4c3C)c(OC)cc2C12CCC2 [Compound 238, 5′-methoxy-N-methyl-6′-(3-methyl-1H-pyrrolo[2,3-c]pyridin-2-yl)spiro[cyclobutane-1,3′-indol]-2′-amine]
> 10 µM | CNc1cc(C)nc(Nc2ccc(C)c(C(=O)Nc3cccnc3)c2)n1 [Compound 239]
> 10 µM | CNc1cc(C)nc(Nc2ccc(Cl)c(C(=O)Nc3cccnc3)c2)n1 [Compound 240]
0.1 to 1 µM | CNc1cc(C)nc(Nc2ccc(C)c(-c3cc4ccncc4[nH]3)c2)n1 [Compound 241]
> 10 µM | CNc1cc(C)nc(Nc2cccc(C(=O)Nc3cccnc3)c2)n1 [Compound 242]
